Measurements reported in EP4702986A1, “POLYPEPTIDE AND USE THEREOF” (Biocells (Beijing) Biotech Co., Ltd., priority 2023, dated 2024).
Entries after “also recorded” stand apart in the source; their conditions may differ. Numbered stars: 1 amine (or outer) side, 2 acyl side, 3 side chain; on linkers, the order of the positions; unused ones are H or OH. Side chains are listed from the residue outwards. Peptide text beside a SMILES is read from it. * marks the point of attachment. C18 diacid = O=C(O)CCCCCCCCCCCCCCCCC(=O)*; γGlu = O=C(O)[C@H](CCC(=O)[*:2])N[*:1]; Fumaroyl = O=C(O)/C=C/C(=O)*; Lauroyl = CCCCCCCCCCCC(=O)*; AEEA = NCCOCCOCC(=O)O

Legend:
[1] = test system: rat model of pMACO; test: Foot fault test in rat model of pMACO; assay type: in vivo, SD rats
From the text: Male SD rats weighing 280-300 g were used and acclimated for at least 3 days. Focal cerebral ischemia was induced by middle cerebral artery occlusion with a suture method under isoflurane anesthesia. The animals were placed in a secure supine position, and a midline incision was made to expose the right common carotid artery, external carotid artery, and internal carotid artery. A 4.0 monofilament nylon suture was advanced from the external carotid artery toward the internal carotid artery lumen until resistance was felt ( ~ 20 mm), indicating middle cerebral artery occlusion. The nylon filament was allowed to stay in place to create a permanent model of focal cerebral ischemia. Successfully modeled rats were randomly assigned to four groups: a solvent (normal saline) group (n=10), a 7 µg/Kg BX-34 group (n=10), a 5 µg/Kg BX-48 group (n=10), and a 5 µg/Kg IRL1620 group (n=10). Each group was administered once at 2 hours, 4 hours, and 6 hours, respectively, after modeling, for a total of three administrations. Grip strength was measured before administration and at 24 hours and on D3 and D7 after administration. A rotarod test and a foot fault test were performed before administration and at 24 hours and day 7 after administration. During the rotarod test, time and distance were recorded, and ratios of the measurement at 24 hours and the measurement at D7 to the pretest measurement were used as analysis indicators. The specific method for the foot fault test was as follows. The rats were placed on an elevated grid floor (29×29 cm, grid opening: 3 cm^2) for 2 minutes, and the number of foot faults (when a forelimb fell through the grid) and the total steps were recorded. % Foot fault = (the number of forelimb faults/the total number of forelimb steps) × 100.

[2] = in vivo; details: male, SD, rat, in vivo, iv
Procedure, shortened: (§1)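 Male SD rats (200-230 g) given single tail-vein injections, descending doses from 480 µg/Kg to 30 µg/Kg. Toxic response, mortality and time of death recorded; acute toxicity level preliminarily set from doses without mortality.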

[3] = test system: male SD rats; test: in vivo; details: one animal per row, observed 24 hours
Procedure, shortened: as §1

[4] = test system: rat model of pMACO; test: mRS-6 scoring in rat model of pMACO; assay type: in vivo, SD rats; parameters: mRS-7D / mRS-14D / mRS-21D / mRS-30D: scale not given here; details: for mRS-7D: day 7; for mRS-14D: day 14; for mRS-21D: day 21; for mRS-30D: day 30
From the text: (§2) Male SD rats, weighing 280-300 g, were used and acclimatized for at least 3 days. Focal cerebral ischemia was induced by middle cerebral artery occlusion with a suture method under isoflurane anesthesia. The animals were placed in a supine position, a midline incision was made, and the right common carotid artery, external carotid artery, and internal carotid artery were exposed. A 4.0 monofilament nylon suture was advanced from the external carotid artery toward the internal carotid artery lumen until resistance was felt (~20 mm), indicating middle cerebral artery occlusion. The nylon filament was allowed to stay in place to create a permanent model of focal cerebral ischemia. The day of modeling was defined as D1, the next day as D2, and so on. Since the experiment was not be completed in a single batch, and in order to prevent accidental errors, all operations in this experiment had to follow the principle of parallel operation, i.e., the experiment on each day needed to include animals from each group. Sequential numbering for surgical modeling was obtained by sorting the animals according to their body weight before the experiment. After the surgery, successfully modeled pMCAO rats were randomly assigned into a model group and various treatment groups. The detailed grouping of the experiment was as follows: (1) 15 rats in the 5 µg/Kg IRL1620 group with 9 administrations over 3 days; (2) 15 rats in the 6.6 µg/Kg BX225 group with 9 administrations over 3 days; (3) 15 rats in the 19.8 µg/Kg BX225 group with 3 administrations over 3 days; (4) 15 rats in the model (normal saline) group; and (5) 6 rats in the sham group (the sham group underwent the same procedure without vascular ligation and suture insertion). The administration was performed via tail vein injection (iv) with an administration volume of 2 mL/kg. The first administration was 2 hours after the surgery. Administration frequencies were single and multiple administrations per day according to the experimental design. Administrations were performed on D1, D3, and D6, respectively, as detailed in Table 22. The model group and the sham group were given the same volume of vehicle normal saline.

[5] = test system: rat model of pMACO; test: Garcia JH scoring in rat model of pMACO; assay type: in vivo, SD rats; parameters: 5 min Spontaneous Activity / Body Symmetry / Forelimb Extension Movement / Cage Climbing / Body Tactile Response on Both Sides / Beard Touch Reaction on Both Sides / Total Score: scale not given here; details: for 5 min Spontaneous Activity / Beard Touch Reaction on Both Sides / Body Symmetry / Body Tactile Response on Both Sides / Cage Climbing / Forelimb Extension Movement / Total Score: Garcia JH score
From the text: as §2

[6] = 3Time regimen: IRL1620 5 µg/Kg, BX225 6.6 µg/Kg
[7] = pMCAO rats, 6.6 µg/Kg three-dose group, iv
[8] = Day 21, 19.8 µg/Kg, 1Time regimen
[9] = Day 21, 3Time regimen: IRL1620 5 µg/Kg, BX225 6.6 µg/Kg
[10] = Day 30, 19.8 µg/Kg, 1Time regimen
[11] = Day 30, 3Time regimen: IRL1620 5 µg/Kg, BX225 6.6 µg/Kg

Structure (SMILES): CC[C@H](C)[C@H](NC(=O)[C@H](CC(=O)O)NC(=O)[C@H](CCCCNC(=O)COCCOCCNC(=O)COCCOCCNC(=O)CC[C@H](NC(=O)CCCCCCCCCCCCCCCCC(=O)O)C(=O)O)NC(=O)[C@H](Cc1c[nH]cn1)NC(=O)[C@H](C)NC(=O)[C@H](Cc1ccccc1)NC(=O)[C@H](Cc1ccc(O)cc1)NC(=O)[C@@H](NC(=O)[C@H](C)NC(=O)[C@H](CCC(=O)O)NC(=O)[C@H](CCC(=O)O)NC(=O)[C@H](CC(=O)O)NC(=O)/C=C/C(=O)O)C(C)C)C(=O)N[C@H](C(=O)N[C@@H](Cc1c[nH]c2ccccc12)C(=O)O)[C@@H](C)CC [BX-34] (Fumaroyl-DEEAVYFAHK([AEEA-AEEA-γGlu-C18 diacid])DIIW-OH)
- percentages of foot faults compared with the saline group and the IRL1620 group ([1]; pMACO rats, BX-34 7 µg/Kg, BX-48 5 µg/Kg, three administrations): lower
- Foot fault Analysis Mean of 7D ([1]; percentage of foot faults at 7D, IRL1620 5 µg/Kg, BX34 7 µg/Kg, BX48 5 µg/Kg, administered 3 times (2, 4, 6 hours after modeling)): 3.46%±2.92%
- Foot fault Analysis Mean of 24h ([1]; percentage of foot faults at 24h, IRL1620 5 µg/Kg, BX34 7 µg/Kg, BX48 5 µg/Kg, administered 3 times (2, 4, 6 hours after modeling)): 10.64%±15.53%
- Foot fault Analysis Mean of Pretest ([1]; percentage of foot faults, pretest (baseline before administration), groups IRL1620 5 µg/Kg, BX34 7 µg/Kg, BX48 5 µg/Kg, 3 times): 1%±1%

Structure (SMILES): CCCCCCCCCCCC(=O)N[C@@H](CCC(=O)NCCOCCOCC(=O)NCCCC[C@H](NC(=O)[C@H](Cc1c[nH]cn1)NC(=O)[C@H](C)NC(=O)[C@H](Cc1ccccc1)NC(=O)[C@H](Cc1ccc(O)cc1)NC(=O)[C@@H](NC(=O)[C@H](C)NC(=O)[C@H](CCC(=O)O)NC(=O)[C@H](CCC(=O)O)NC(=O)[C@H](CC(=O)O)NC(=O)/C=C/C(=O)O)C(C)C)C(=O)N[C@@H](CC(=O)O)C(=O)N[C@H](C(=O)N[C@H](C(=O)N[C@@H](Cc1c[nH]c2ccccc12)C(=O)O)[C@@H](C)CC)[C@@H](C)CC)C(=O)O [BX-225] (Fumaroyl-DEEAVYFAHK([AEEA-γGlu-Lauroyl])DIIW-OH)
- MTD at 24 h [2]: 0.03 mg/kg
- Observations of Animal Status ([3]; intravenous (tail vein) 30 µg/Kg): No obvious abnormalities observed within 24 hours
- Observations of Animal Status ([3]; intravenous (tail vein) 60 µg/Kg): Lay still and showed no willingness to move at 7 minutes; became active at 10 minutes; signs of pain were observed in the animal through pupil observation; no pain at 23 minutes; also recorded: Lay still and showed no willingness to move at 7 minutes; became active at 10 minutes; signs of pain were observed in the animal through pupil observation; developed rapid breathing at 35 minutes; died at 70 minutes
- Observations of Animal Status ([3]; intravenous (tail vein) 120 µg/Kg): Breathing became slightly faster at 2 minutes, showed no willingness to move, had slow reactions, and breathing speeded up at 25 minutes; the symptoms basically eased at 1.5 hours; also recorded: Showed no willingness to move, had slow reactions, and breathing became slightly faster at 10 minutes; the symptoms lasted for nearly 1 hour; the symptoms basically eased at 1 hour and 10 minutes; also recorded: Developed abdominal breathing and lay still at 27 minutes; died of difficulty in breathing at 40 minutes; also recorded: Developed abdominal breathing and lay still at 25 minutes; died of difficulty in breathing at 32 minutes
- Observations of Animal Status ([3]; intravenous (tail vein) 240 µg/Kg): Developed rapid breathing at 4 minutes, collapsed at 5 minutes, eyes turned dull at 7 minutes; died at 12 minutes
- mRS-7D ([4]; 19.8 µg/Kg, 1Time regimen): 3.14±2.14
- mRS-7D [4, 6]: 1.67±0.50
- mRS-14D ([4]; 19.8 µg/Kg, 1Time regimen): 3.90±2.61
- mRS-14D [4, 6]: 1.17±0.50
- mRS-21D ([4]; 19.8 µg/Kg, 1Time regimen): 3.73±2.81
- mRS-21D [4, 6]: 0.75±0.41
- mRS-30D ([4]; 19.8 µg/Kg, 1Time regimen): 3.65±2.91
- mRS-30D [4, 6]: 0.50±0.31
- mRS-6 score on day 14 compared with the normal saline group and the IRL1620 three-dose group [4, 7]: close to a significant difference
- mRS-6 scores, course from day 7, day 14, day 21, to day 30 [4, 7]: continuous improvement
- mRS-6 scores on days 7, 21, and 30 compared with the normal saline group and the IRL1620 three-dose group ([4]; pMCAO rats, 6.6 µg/Kg three-dose group, iv, P<0.05): significant differences
- 5 min Spontaneous Activity [5, 8]: 1.17±1.47
- Beard Touch Reaction on Both Sides [5, 8]: 1.63±0.80
- Body Symmetry [5, 8]: 0.63±0.80
- Body Tactile Response on Both Sides [5, 8]: 1.60±0.77
- Cage Climbing [5, 8]: 1.69± 0.85
- Forelimb Extension Movement [5, 8]: 0.80±1.01
- Total Score [5, 8]: 7.51± 5.58
- 5 min Spontaneous Activity [5, 9]: 2.89±0.33
- Beard Touch Reaction on Both Sides [5, 9]: 2.70±0.25
- Body Symmetry [5, 9]: 1.74±0.48
- Body Tactile Response on Both Sides [5, 9]: 2.50±0.23
- Cage Climbing [5, 9]: 2.30± 0.71
- Forelimb Extension Movement [5, 9]: 1.87±0.52
- Total Score [5, 9]: 13.99 ±1.49
- 5 min Spontaneous Activity [5, 10]: 1.25±1.54
- Beard Touch Reaction on Both Sides [5, 10]: 1.50±0.65
- Body Symmetry [5, 10]: 0.78±0.98
- Body Tactile Response on Both Sides [5, 10]: 1.46±0.59
- Cage Climbing [5, 10]: 1.79±0.98
- Forelimb Extension Movement [5, 10]: 0.93+1.15
- Total Score [5, 10]: 7.71± 5.82
- 5 min Spontaneous Activity [5, 11]: 3.00±0.00
- Beard Touch Reaction on Both Sides [5, 11]: 2.39±0.13
- Body Symmetry [5, 11]: 2.07±0.29
- Body Tactile Response on Both Sides [5, 11]: 2.29±0.18
- Cage Climbing [5, 11]: 2.81±0.15
- Forelimb Extension Movement [5, 11]: 2.25±0.23
- Total Score [5, 11]: 14.81 ±0.56
- Garcia JH scores on days 21 and 30 compared with the normal saline group [5, 7]: statistical differences
- Garcia JH scores, course from day 7, day 14, day 21, to day 30 [5, 7]: continuous improvement trend
